In paper PMC7528119, “The rapid “teabag” method for high-end purification of membrane proteins” (Scientific Reports, 2020):

Molecular target: T1, KCC2 (Monodelphis domestica, UniProt F6WQ48)
T1 construct: gene SLC12A5; N-terminal His and FLAG tag
T1 sequence (F6WQ48 1-1115): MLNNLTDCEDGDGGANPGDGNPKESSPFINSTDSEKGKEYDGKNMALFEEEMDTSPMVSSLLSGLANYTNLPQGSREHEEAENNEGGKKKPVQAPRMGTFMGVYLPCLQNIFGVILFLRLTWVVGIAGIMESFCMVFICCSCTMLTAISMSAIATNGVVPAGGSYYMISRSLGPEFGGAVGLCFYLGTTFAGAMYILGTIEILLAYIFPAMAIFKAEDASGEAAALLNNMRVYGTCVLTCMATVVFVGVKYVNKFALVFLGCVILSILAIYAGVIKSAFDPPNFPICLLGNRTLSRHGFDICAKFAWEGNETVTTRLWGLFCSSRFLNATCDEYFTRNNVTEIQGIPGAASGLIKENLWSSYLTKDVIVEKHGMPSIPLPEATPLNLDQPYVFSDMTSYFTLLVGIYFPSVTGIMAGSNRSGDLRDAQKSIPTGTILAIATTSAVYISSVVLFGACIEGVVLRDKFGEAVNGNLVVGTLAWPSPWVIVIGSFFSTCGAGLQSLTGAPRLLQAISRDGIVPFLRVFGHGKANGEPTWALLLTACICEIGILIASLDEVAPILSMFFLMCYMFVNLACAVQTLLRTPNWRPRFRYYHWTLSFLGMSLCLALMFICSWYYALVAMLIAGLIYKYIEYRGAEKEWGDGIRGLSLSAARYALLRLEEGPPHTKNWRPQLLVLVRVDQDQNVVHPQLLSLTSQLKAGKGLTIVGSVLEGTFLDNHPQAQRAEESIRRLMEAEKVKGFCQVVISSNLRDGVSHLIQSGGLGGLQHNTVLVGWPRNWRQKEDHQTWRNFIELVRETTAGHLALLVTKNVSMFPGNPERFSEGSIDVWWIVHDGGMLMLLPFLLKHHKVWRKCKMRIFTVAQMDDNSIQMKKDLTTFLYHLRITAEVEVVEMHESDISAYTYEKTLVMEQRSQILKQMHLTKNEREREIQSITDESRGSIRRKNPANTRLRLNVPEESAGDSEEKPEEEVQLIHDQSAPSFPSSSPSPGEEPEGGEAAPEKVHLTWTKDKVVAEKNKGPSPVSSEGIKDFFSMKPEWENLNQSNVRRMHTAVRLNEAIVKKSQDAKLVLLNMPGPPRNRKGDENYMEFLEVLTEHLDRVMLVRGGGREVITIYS
Test: SPR steady-state affinity on covalently immobilized KCC2
Type: binding

Cc1csc(N(C(=O)CSc2ccc(-c3ccccc3)nn2)C2CC2)n1 [VU0463271] showed a Kd of 750 ± 250 nM.
